Test [1] concerns the target T1, human β1AR (Homo sapiens, UniProt P08588). Briefly: Adenylyl cyclase (AC) assay on plasma membranes of HEK-β1AR cells (G-protein coupling). The class given is biochemical. Details: FLAG; expressed in transfected cells; pcDNA3.1(-) plasmid, a gift from Dr. Yang K. Xiang. The note with it: agent alone, isolated plasma membranes. The method, then:
(§1) Briefly the treated cells were scraped using osmotic lysis buffer (5 mM Tris-HCl, pH 7.4; 5 mM EDTA; 1 mM PMSF; 2 μg/mL Leupeptin and 1 μg/mL Aprotinin) and homogenized by douncing. Cardiac tissue samples from non-failing human hearts were homogenized in osmotic lysis buffer using Polytron® homogenizer. This was followed by toggling the samples for 10 mins. The intact cells and nuclei were removed by centrifuging these samples at 2500 rpm for 5 mins. The collected supernatant was centrifuged at 17500 rpm for 30 minutes to obtain the plasma membrane as pellet. All the above steps were performed at 4° C.

Test [2] deals with T1, human β1AR. Briefly: cAMP generation in β1AR-HEK 293 cells (Catchpoint cAMP kit). The note with it: agent alone, 10 μM for 10 min, serum starved cells, vs control.
Experimental: cAMP generation assay was performed using whole cell lysates. The assay was done using the standard manufacturer's protocol.
The target in another test is T2, human cardiac β1AR (Homo sapiens, UniProt P08588).
T2 construct: non-failing human hearts were used as an endogenous system; tissue Cleveland Clinic's Tissue Bank; host or cells: non-failing donor human heart, plasma membrane fraction
T2 sequence (P08588 whole entry): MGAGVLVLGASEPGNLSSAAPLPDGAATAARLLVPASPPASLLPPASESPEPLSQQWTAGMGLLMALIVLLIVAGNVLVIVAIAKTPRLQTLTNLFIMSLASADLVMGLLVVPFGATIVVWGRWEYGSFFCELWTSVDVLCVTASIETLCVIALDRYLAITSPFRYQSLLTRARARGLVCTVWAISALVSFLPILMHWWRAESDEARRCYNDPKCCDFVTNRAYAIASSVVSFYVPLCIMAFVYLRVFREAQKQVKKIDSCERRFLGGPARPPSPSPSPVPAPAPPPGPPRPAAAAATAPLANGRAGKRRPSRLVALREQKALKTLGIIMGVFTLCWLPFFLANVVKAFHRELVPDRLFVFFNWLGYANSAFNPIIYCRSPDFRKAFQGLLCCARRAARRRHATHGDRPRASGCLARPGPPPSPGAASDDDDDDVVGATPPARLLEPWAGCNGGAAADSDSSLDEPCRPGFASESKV
As to the kind of experiment: AC activity in cardiac plasma membranes from non-failing donor human hearts. Type of test: biochemical. Particulars: agent alone, absence of IgG3 autoantibodies. The method, then: as §1

The target of test [3] is T1, human β1AR. Briefly: phospho-ERK immunoblotting in β1AR-HEK 293 cells. Particulars: agent alone.

T1 sequence (P08588 whole entry): as above

Regarding `CC(CCc1ccc(O)cc1)NCCc1ccc(O)c(O)c1` (stereo not shown) [Dob, dobutamine], the AC activity entry on human β1AR [1] was “significantly increased AC activity”; at human cardiac β1AR, “activating AC activity”. The cAMP generation result at human β1AR [2] is “significantly increased”. In addition, the ERK phosphorylation result on human β1AR [3] is “significantly increased”.

These data come from US20240124594A1, “TREATMENT OF CVD AND SYSTEMIC SCEROSIS WITH BETA-1 ADRENERGIC RECEPTOR ANTIBODIES” (The Cleveland Clinic Foundation, priority 2021, published 2024).
